Source: ChEMBL document CHEMBL5543168, “Discovery of Urea Derivatives of Celastrol as Selective Peroxiredoxin 1 Inhibitors against Colorectal Cancer Cells” (J Med Chem, 2024)
Activity calls are given as the source filed them. The calls are words filed in the database; no cut-off is given here.

Columns and labels:
SW-620 [1] = test: Induction of apoptosis in human SW620 cells assessed as increase in Cyt C level incubated for 48 hrs by Western blot analysis; assay type: functional, cell-based; conditions: dose 0.25-2 µM
[2] = Antiproliferative activity against mouse […] cells; assay type: toxicity, cell-based
[3] = Half life in mouse at 2 mg/kg, iv measured for 24 hrs by LC-MS/MS analysis; assay type: ADME, organism-based; conditions: in vivo
SW-620 [4] = test: Induction of mitochondrial membrane potential depolarization in human SW620 cells assessed as decrease in fluorescence intensity ratio of JC1-stained aggregates to monomers incubated for 48 hrs by CLSM analysis; assay type: functional, cell-based; conditions: dose 0.5-2 µM
SW-620 [5] = test: Induction of apoptosis in human SW620 cells assessed as total apoptotic cells at 1 uM incubated for 48 hrs by Annexin V-FITC/PI staining based flow cytometry relative to control; assay type: functional
SW-620 [6] = test: Antitumor activity against human SW620 cells xenografted in BALB/c nude mouse at 2 mg/kg, ip qd for 16 days relative to control; assay type: functional; conditions: SW-620, 384 h, time 16 day, read-out: TGI
[7] = Selectivity ratio of IC50 for HEK293T cells to IC50 for human SW620 cells; assay type: functional
[8] = Antiproliferative activity against HEK293T cells; assay type: toxicity, cell-based, HEK-293T; conditions: human
SW-620 [9] = test: Induction of cell cycle arrest at S phase in human SW620 cells at 2 uM incubated for 24 hrs by PI staining based flow cytometry (reference value: 59.9 %); assay type: functional
[10] = AUC (0 to infinity) in mouse at 2 mg/kg, iv measured for 24 hrs by LC-MS/MS analysis; assay type: ADME, organism-based; conditions: in vivo
SW-620 [11] = test: Induction of apoptosis in human SW620 cells assessed as decrease in Bcl-xl level incubated for 48 hrs by Western blot analysis; assay type: functional, cell-based; conditions: dose 0.25-2 µM
SW-620 [12] = test: Induction of apoptosis in human SW620 cells assessed as total apoptotic cells at 2 uM incubated for 48 hrs by Annexin V-FITC/PI staining based flow cytometry relative to control; assay type: functional
[13] = Clearance in mouse at 2 mg/kg, iv measured for 24 hrs by LC-MS/MS analysis; assay type: ADME, organism-based; conditions: in vivo
SW-620 [14] = test: Induction of mitochondrial membrane potential depolarization in human SW620 cells assessed as reduction in red fluorescence incubated for 48 hrs by JC1-staining based CLSM analysis; assay type: functional, cell-based; conditions: dose 0.5-2 µM
Peroxiredoxin-4 = target: T1, Peroxiredoxin-4 (Homo sapiens, UniProt Q13162); test: Inhibition of recombinant PRDX4 (unknown origin) using H2O2 as substrate preincubated for 0.5 hrs followed by substrate addition by TRX-TrxR-NADPH coupling assay
T1 sequence (Q13162 whole entry): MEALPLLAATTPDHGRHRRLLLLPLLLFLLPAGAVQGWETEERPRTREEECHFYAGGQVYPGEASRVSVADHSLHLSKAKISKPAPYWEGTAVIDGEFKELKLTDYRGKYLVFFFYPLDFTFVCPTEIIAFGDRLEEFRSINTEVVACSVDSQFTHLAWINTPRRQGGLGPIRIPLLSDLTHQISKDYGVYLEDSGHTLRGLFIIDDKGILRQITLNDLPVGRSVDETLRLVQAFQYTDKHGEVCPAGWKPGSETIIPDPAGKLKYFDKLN

SW-620 [15] = test: Induction of cell cycle arrest at G2 phase in human SW620 cells at 0.5 uM incubated for 24 hrs by PI staining based flow cytometry (reference value: 6.77 %); assay type: functional
[16] = Acute toxicity in C57BL/[…] 6J mouse assessed as pathological change in heart at 20 mg/kg, ip measured for 2 weeks by H and E staining based analysis; assay type: organism-based; conditions: in vivo, 336 h
[17] = target: T2, Peroxiredoxin-5, mitochondrial (Homo sapiens, UniProt P30044); test: Inhibition of recombinant PRDX5 (unknown origin) using H2O2 as substrate preincubated for 0.5 hrs followed by substrate addition by TRX-TrxR-NADPH coupling assay
T2 sequence (P30044 whole entry): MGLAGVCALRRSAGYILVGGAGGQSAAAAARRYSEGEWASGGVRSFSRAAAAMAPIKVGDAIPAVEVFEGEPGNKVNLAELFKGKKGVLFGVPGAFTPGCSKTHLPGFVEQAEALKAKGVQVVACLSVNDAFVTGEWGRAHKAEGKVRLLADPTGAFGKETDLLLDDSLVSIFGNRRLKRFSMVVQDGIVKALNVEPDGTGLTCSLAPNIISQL

SW-620 [18] = test: Anti-proliferative activity against human SW620 cells xenografted in BALB/c nude mouse at 2 mg/kg, ip qd for 16 days by TUNEL analysis; assay type: functional, organism-based; conditions: time 16.0 day
[19] = Acute toxicity in C57BL/[…] 6J mouse assessed as animal death at 20 mg/kg, ip measured for 2 weeks; assay type: organism-based; conditions: in vivo, 336 h
[20] = target: T3, Peroxiredoxin-1 (Homo sapiens) (UniProt Q06830)
T3 sequence (whole entry): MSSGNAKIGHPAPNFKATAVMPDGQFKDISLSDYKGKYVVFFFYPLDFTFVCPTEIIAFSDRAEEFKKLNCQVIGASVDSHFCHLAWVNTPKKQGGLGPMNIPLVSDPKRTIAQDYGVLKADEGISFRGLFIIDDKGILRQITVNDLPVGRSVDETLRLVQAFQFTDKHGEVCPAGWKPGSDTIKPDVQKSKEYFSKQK
Description: Binding affinity to recombinant PRDX1 (unknown origin)assessed as change in melting temperature by protein thermal shift assay

[21] = target: T4, Thioredoxin-dependent peroxide reductase, mitochondrial (Homo sapiens, UniProt P30048); test: Inhibition of recombinant PRDX3 (unknown origin) using H2O2 as substrate preincubated for 0.5 hrs followed by substrate addition by TRX-TrxR-NADPH coupling assay
T4 sequence (P30048 whole entry): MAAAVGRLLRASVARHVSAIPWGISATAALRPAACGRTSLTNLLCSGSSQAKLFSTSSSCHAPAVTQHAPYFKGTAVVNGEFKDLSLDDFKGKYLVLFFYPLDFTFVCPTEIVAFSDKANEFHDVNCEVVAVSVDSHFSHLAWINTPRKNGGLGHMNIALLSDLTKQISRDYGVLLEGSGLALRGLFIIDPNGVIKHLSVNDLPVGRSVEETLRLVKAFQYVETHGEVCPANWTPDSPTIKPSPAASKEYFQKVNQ

Peroxiredoxin-2 = target: T5, Peroxiredoxin-2 (Homo sapiens, UniProt P32119); test: Inhibition of recombinant PRDX2 (unknown origin) using H2O2 as substrate preincubated for 0.5 hrs followed by substrate addition by TRX-TrxR-NADPH coupling assay
T5 sequence (P32119 whole entry): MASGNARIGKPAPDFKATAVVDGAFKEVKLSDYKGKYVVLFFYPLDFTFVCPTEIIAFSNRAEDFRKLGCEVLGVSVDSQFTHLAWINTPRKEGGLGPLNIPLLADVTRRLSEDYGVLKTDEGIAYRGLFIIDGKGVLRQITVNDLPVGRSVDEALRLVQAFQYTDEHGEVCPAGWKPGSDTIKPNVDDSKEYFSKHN

SW-620 [22] = test: Induction of cell cycle arrest at S phase in human SW620 cells at 1 uM incubated for 24 hrs by PI staining based flow cytometry (reference value: 59.9 %); assay type: functional
[23] = Acute toxicity in C57BL/[…] 6J mouse assessed as pathological change in spleen at 20 mg/kg, ip measured for 2 weeks by H and E staining based analysis; assay type: organism-based; conditions: in vivo, 336 h
[24] = Selectivity ratio of IC50 for HEK293T cells to IC50 for human HCT-116 cells; assay type: functional

## COC(=O)C1(NC(=O)N[C@]2(C)CC[C@]3(C)CC[C@]4(C)C5=CC=C6C(=CC(=O)C(O)=C6C)[C@]5(C)CC[C@@]4(C)[C@@H]3C2)CCC1
SW-620 [1]
  Activity: Dose-Dependent Effect
[2]
  IC50: ~1 µM
[3]
  half-life: 8.46 h
SW-620 [4]
  Activity: Dose-Dependent Effect
SW-620 [5]
  Activity: 19%
SW-620 [6]
  inhibition in vivo at 2 mg/kg: 45.4%
[7]
  Selectivity ratio: 2
[8]
  IC50: ~1 µM
SW-620 [9]
  Activity: 50.1%
[10]
  AUC(0-inf): 403 ng·h/mL
SW-620 [11]
  Activity: Dose-Dependent Effect
SW-620 [12]
  Activity: 54.7%
[13]
  clearance: 83.1 mL/min/kg
SW-620 [14]
  Activity: Dose-Dependent Effect
Peroxiredoxin-4
  IC50: > 50 µM
SW-620 [15]
  Activity: 7.05%
[16]
  Activity: Non-Toxic
[17]
  IC50: > 50 µM
SW-620 [18]
  Activity: Active
[19]
  Activity: Non-Toxic
[20]
  ΔTm: -7.5 °C
[21]
  IC50: > 50 µM
Peroxiredoxin-2
  IC50: > 50 µM
SW-620 [22]
  Activity: 42.7%
[23]
  Activity: Non-Toxic
[24]
  Selectivity ratio: 2
